The values that follow are results of earlier work, collected in patent US20160347856A1, “Use of Anti-MUC1 Maytansinoid Immunoconjugate Antibody for the Treatment of Solid Tumors” (SANOFI, priority 2013, published 2016).

Molecules are shown by their SMILES.

For series [1] the following is noted: poor therapeutic effects because of high systemic toxicity; Foster et al. (1996), Wolff et al. (1996).
For series [2] the following is noted: Bhuyan et al. (1982).
The next series deals with mice. Conditions: single intravenous dose of 12.5 μg/kg; Reynolds et al. (1986).

Consider `CCN(CC)c1ccc2cc(C(=O)Nc3ccc4[nH]c(C(=O)N5C[C@@H](CCl)c6c5cc(OC(=O)Nc5ccccc5)c5[nH]cc(C)c65)cc4c3)oc2c1` [Carzelesin], for which, in series [1], the Clinical evaluation entry is “disappointing results”.

`COc1c(O)c2c(c3cc(C(=O)N4CCc5c4c(O)c(OC)c4[nH]c(C(=O)N6CC7CC78C6=CC(=O)c6[nH]cc(C)c68)cc54)[nH]c13)CCN2C(N)=O` (stereo not shown) [CC-1065]: the “Potency in vitro relative to doxorubicin, methotrexate and vincristine” value in series [2] is recorded as “about 1000 fold”. Moreover, the “Toxicity after administration to mice” value in the series on mice is “delayed hepatotoxicity leading to mortality on day 50”.

Take `Cc1c[nH]c2c1[C@@]13C[C@@H]1CN(C(=O)c1cc4cc(NC(=O)c5cc6ccccc6o5)ccc4[nH]1)C3=CC2=O` [Adozelesin]: the Clinical evaluation entry in series [1] is reported as “disappointing results”.
